Laboratory results taken from patent US20140249135A1, “PIM KINASE INHIBITORS AND METHODS OF THEIR USE” (NOVARTIS AG, priority 2007, published 2014).
Where two headings read alike, the source gives them in different places.

How the values were obtained:
[1] = molecular target: Pim1 kinase (Homo sapiens, UniProt P11309); assay: Pim1 ATP depletion assay; type: biochemical;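 note: Luciferase-luciferin luminescence readout of residual ATP after PIM1 transfers phosphate to a peptide substrate, 40 µM ATP added, reaction run to roughly half ATP consumption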
[2] = molecular target: Pim2 kinase (Homo sapiens, UniProt Q9P1W9); assay: Pim2 ATP depletion assay; type: biochemical;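 note: Luciferase-based luminescent readout of ATP remaining after PIM2 phosphorylates a BAD peptide, final 5 nM enzyme, 4 µM ATP, 10 µM peptide, 2.5% DMSO, run to roughly half ATP consumption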
[3] = molecular target: KDR kinase (Homo sapiens, UniProt P35968); assay: KDR AlphaScreen assay; details: KDR IC50 (μM)
[4] = molecular target: Pim3 kinase (Homo sapiens, UniProt Q86V86); assay: Pim3 ATP depletion assay; type: biochemical
[5] = molecular target: T1, human full length PKCE enzyme (Homo sapiens, UniProt Q02156); assay: In vitro PKCE assay; type: biochemical; details: 10 nM enzyme, 40 uM peptide substrate, 20 uM ATP, KinaseGlo Plus readout; read-out: PKCε IC50
T1 construct: human full length PKCE enzyme purchased from InVitrogen; purchased InVitrogen
T1 sequence (Q02156 1-737): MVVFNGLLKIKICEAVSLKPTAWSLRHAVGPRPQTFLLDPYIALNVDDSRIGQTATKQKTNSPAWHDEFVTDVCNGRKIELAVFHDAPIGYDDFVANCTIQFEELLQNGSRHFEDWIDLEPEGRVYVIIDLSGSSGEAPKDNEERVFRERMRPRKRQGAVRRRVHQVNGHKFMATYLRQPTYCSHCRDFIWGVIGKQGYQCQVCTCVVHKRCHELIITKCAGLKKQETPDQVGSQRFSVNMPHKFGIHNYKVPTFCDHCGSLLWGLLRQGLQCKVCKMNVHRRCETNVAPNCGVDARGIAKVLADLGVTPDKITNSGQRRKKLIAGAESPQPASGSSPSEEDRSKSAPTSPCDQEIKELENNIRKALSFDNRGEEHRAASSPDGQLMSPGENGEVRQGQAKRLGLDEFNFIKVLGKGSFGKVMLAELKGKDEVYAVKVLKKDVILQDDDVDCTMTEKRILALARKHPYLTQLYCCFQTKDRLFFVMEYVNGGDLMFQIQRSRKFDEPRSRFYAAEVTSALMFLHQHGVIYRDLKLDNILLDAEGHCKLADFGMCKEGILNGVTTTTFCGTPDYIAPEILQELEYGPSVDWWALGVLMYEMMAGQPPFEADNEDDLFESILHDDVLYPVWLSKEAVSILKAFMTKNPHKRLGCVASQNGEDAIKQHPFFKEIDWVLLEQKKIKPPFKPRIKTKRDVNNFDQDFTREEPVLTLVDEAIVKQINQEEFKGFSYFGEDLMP

[6] = Pim1 ATP depletion assay, read-out: IC50 (μM) PIM1
[7] = Pim1 ATP depletion assay, read-out: PIM1 IC50

Chain of Pim1 kinase (P11309 whole entry): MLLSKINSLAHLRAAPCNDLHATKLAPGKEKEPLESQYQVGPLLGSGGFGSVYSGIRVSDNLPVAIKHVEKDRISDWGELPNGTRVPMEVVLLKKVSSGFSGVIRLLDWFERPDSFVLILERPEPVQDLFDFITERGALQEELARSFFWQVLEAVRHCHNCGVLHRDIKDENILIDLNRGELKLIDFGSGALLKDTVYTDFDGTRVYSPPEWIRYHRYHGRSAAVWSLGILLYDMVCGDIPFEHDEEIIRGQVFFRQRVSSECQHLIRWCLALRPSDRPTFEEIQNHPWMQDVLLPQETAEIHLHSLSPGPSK
Chain of KDR kinase (P35968 20-1356): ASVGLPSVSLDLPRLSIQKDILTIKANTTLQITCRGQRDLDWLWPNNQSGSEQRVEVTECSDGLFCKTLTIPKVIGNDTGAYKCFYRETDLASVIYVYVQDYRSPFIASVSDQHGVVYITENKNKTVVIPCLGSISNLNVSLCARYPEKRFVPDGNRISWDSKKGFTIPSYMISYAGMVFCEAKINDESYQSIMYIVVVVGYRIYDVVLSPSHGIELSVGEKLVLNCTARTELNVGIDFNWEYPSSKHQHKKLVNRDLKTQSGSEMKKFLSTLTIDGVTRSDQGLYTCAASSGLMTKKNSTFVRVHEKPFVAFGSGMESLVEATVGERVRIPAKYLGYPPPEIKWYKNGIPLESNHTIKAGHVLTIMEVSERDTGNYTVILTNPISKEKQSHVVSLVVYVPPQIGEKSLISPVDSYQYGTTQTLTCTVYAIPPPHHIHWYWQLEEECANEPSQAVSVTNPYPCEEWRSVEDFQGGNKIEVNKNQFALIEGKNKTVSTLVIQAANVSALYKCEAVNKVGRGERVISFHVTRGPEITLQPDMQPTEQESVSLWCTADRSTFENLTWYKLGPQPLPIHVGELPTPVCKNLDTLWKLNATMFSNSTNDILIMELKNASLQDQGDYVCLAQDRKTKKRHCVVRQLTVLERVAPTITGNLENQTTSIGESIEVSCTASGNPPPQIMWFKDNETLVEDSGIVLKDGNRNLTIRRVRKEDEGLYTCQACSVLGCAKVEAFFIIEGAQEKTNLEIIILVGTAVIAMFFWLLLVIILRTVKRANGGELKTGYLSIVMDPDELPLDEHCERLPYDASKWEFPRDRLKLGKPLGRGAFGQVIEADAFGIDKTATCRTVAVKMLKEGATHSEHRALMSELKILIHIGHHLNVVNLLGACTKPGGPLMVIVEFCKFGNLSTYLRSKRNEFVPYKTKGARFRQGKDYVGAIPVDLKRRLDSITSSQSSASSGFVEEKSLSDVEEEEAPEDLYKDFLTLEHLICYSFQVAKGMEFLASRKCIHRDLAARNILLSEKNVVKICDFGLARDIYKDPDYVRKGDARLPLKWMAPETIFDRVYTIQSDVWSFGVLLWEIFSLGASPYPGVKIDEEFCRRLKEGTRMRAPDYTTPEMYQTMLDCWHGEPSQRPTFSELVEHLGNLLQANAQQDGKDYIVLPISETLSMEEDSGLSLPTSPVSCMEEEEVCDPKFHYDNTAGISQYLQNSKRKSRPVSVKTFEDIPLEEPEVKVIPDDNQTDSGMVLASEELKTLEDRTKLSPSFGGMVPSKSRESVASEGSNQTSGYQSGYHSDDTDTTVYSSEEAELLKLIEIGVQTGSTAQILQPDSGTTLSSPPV
Chain of Pim2 kinase (Q9P1W9 whole entry): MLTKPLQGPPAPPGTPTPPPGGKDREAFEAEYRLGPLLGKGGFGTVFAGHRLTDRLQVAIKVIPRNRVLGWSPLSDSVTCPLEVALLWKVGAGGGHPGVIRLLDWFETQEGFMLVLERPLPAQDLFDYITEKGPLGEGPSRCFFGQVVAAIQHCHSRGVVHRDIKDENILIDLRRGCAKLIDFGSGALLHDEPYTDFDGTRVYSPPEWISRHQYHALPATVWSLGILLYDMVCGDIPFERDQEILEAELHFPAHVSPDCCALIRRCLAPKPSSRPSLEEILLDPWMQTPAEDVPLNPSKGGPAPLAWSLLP

Structure (SMILES)	IC50 [1, 6] [µM]	IC50 ([2]; read-out: IC50 (μM) PIM2) [µM]	IC50 [3] [µM]	IC50 ([4]; read-out: IC50 (μM) PIM3) [µM]	IC50 [5] [nM]	IC50 [1] [µM]	IC50 [1, 7] [µM]	IC50 ([2]; read-out: PIM2 IC50) [µM]	IC50 ([4]; read-out: PIM3 IC50) [µM]
Cc1ccc(NC(=O)c2nccnc2N)c(N2CCCC(N)C2)c1 (stereo not shown) [Example 229, 3-amino-N-[2-(3-aminopiperidin-1-yl)-4-methylphenyl]pyrazine-2-carboxamide]	< 1	1 to 10	> 25	< 1	1000 to 10000				
Nc1cc(C(F)(F)F)c(-c2ccc(N)c(C(=O)Nc3cnccc3N3CCC[C@H](N)C3)n2)cn1 [Example 483, 5,6′-Diamino-4′-trifluoromethyl-[2,3′]bipyridinyl-6-carboxylic acid (3-amino-3,4,5,6-tetrahydro-2H-[1,4′]bipyridinyl-3′-yl)-amide]	< 1	< 1	> 25	< 1	10000 to 25000				
NCC1CCCN(c2cnc(=O)[nH]c2NC(=O)c2nc(Cl)c(N)nc2N)C1 (stereo not shown) [Example 236, 3,5-diamino-N-{5-[3-(amino-methyl)piperidin-1-yl]-2-oxo-2,3-dihydropyrimidin-4-yl}-6-chloropyrazine-2-carboxamide]	< 1	< 1	10 to 25	< 1	> 25000				
Cc1ccc(-c2ccc(N)c(C(=O)Nc3cnccc3N3CCC[C@H](N)C3)n2)c(F)c1 [Example 406, (S)-3-amino-N-(4-(3-aminopiperidin-1-yl)pyridin-3-yl)-6-(2-fluoro-4-methylphenyl)picolinamide]	< 1	< 1	> 25	< 1	1000 to 10000				
Nc1nccnc1C(=O)Nc1cc(C(F)(F)F)ccc1N1CCCC(N)C1 (stereo not shown) [Example 226, 3-amino-N-[2-(3-aminopiperidin-1-yl)-5-(trifluoromethyl)phenyl]-pyrazine-2-carboxamide]	< 1	1 to 10	> 25	< 1	1000 to 10000				
NCCC(=O)N1CCN(c2ccncc2NC(=O)c2nccnc2N)CC1 [Example 188, 3-amino-N-{4-[4-(3-aminopropanoyl)piperazin-1-yl]pyridin-3-yl}pyrazine-2-carboxamide]		1 to 10	1 to 10	< 1	< 1000	< 1			
CC(=O)c1ccc(N2CCNCC2)c(NC(=O)c2nccnc2N)c1 [Example 219, N-(5-acetyl-2-piperazin-1-yl-phenyl)-3-aminopyrazine-2-carboxamide]	< 1	10 to 25	> 25	< 1	1000 to 10000				
CN1CCC(NC2CCCN(c3ccncc3NC(=O)c3nc(Br)cnc3N)C2)CC1 (stereo not shown) [Example 597, 3-amino-6-bromo-N-(4-(3-(1-methylpiperidin-4-ylamino)piperidin-1-yl)pyridin-3-yl)pyrazine-2-carboxamide]			> 25		1000 to 10000		< 1	1 to 10	< 1
Nc1ncc(-c2ccccc2)nc1C(=O)Nc1cc(C(=O)c2ccccc2)ccc1N1CCC(N)CC1 [Example 436, 3-amino-6-phenyl-pyrazine-2-carboxylic acid [2-(4-amino-piperidin-1-yl)-5-benzoyl-phenyl]-amide]	1 to 10	> 25	1 to 10	1 to 10	1000 to 10000				
NC(=O)c1cccc(-c2cnc(N)c(C(=O)Nc3ccccc3N3CCNCC3)n2)c1 [Example 385, 3-amino-6-(3-carbamoyl-phenyl)-pyrazine-2-carboxylic acid (2-piperazin-1-yl-phenyl)-amide]	< 1	1 to 10	1 to 10	< 1	< 1000				
COc1ccc(-c2cnc(N)c(C(=O)Nc3ccccc3N3CCCC(N)C3)n2)cc1 (stereo not shown) [Example 375, 3-amino-6-(4-methoxy-phenyl)-pyrazine-2-carboxylic acid [2-(3-amino-piperidin-1-yl)-phenyl]-amide]			1 to 10		< 1000				
Nc1ncc(-c2ccccc2F)nc1C(=O)Nc1ccccc1N1CCCC(N)C1 (stereo not shown) [Example 374, 3-amino-6-(2-fluoro-phenyl)-pyrazine-2-carboxylic acid [2-(3-amino-piperidin-1-yl)-phenyl]-amide]			1 to 10		< 1000				
Nc1cnc(-c2c(F)cccc2F)nc1C(=O)Nc1cnccc1N1CCC[C@H](O)C1 [Example 648, 5-Amino-2-(2,6-difluoro-phenyl)-pyrimidine-4-carboxylic acid (3-hydroxy-3,4,5,6-tetrahydro-2H-[1,4′]bi-pyridinyl-3′-yl)-amide]			10 to 25				< 1	< 1	< 1
N[C@H]1CCCN(c2ccncc2NC(=O)c2ccnc(-c3c(F)cccc3F)n2)C1 [Example 249, N-{4-[(3S)-3-aminopiperidin-1-yl]pyridin-3-yl}-2-(2,6-difluorophenyl)pyrimidine-4-carboxamide N-{4-[(3S)-3-aminopiperidin-1-yl]pyridin-3-yl}-2-(2,6-difluorophenyl)-pyrimidine-4-carboxamide]	< 1	< 1	10 to 25	< 1					
Cc1ccc(F)c(-c2ncc(N)c(C(=O)Nc3cnccc3N3CCC[C@H](N)C3)n2)c1 [Example 543, 5-Amino-2-(2-fluoro-5-methyl-phenyl)-pyrimidine-4-carboxylic acid (3-amino-3,4,5,6-tetrahydro-2H-[1,4′]bipyridinyl-3′-yl)-amide]			10 to 25				< 1	< 1	< 1

Further lines, results first:

IC50 [1, 6] [µM]	IC50 ([2]; read-out: IC50 (μM) PIM2) [µM]	IC50 [3] [µM]	IC50 ([4]; read-out: IC50 (μM) PIM3) [µM]	IC50 [5] [nM]	IC50 [1] [µM]	IC50 [1, 7] [µM]	IC50 ([2]; read-out: PIM2 IC50) [µM]	IC50 ([4]; read-out: PIM3 IC50) [µM]	Structure (SMILES)
< 1	< 1	1 to 10	< 1	1000 to 10000					Nc1nc(N)c(C(=O)Nc2[nH]c(=O)ncc2N2CCCC(N)C2)nc1Cl (stereo not shown) [Example 134, 3,5-diamino-N-[5-(3-amino-piperidin-1-yl)-2-oxo-2,3-dihydropyrimidin-4-yl]-6-chloropyrazine-2-carboxamide]
< 1	1 to 10	1 to 10	< 1	< 1000					Nc1ncc(-c2ccoc2)nc1C(=O)Nc1ccccc1N1CCC(N)CC1 [Example 379, 3-amino-6-furan-3-yl-pyrazine-2-carboxylic acid [2-(4-amino-piperidin-1-yl)-phenyl]-amide]
		< 1		< 1000					NC(=O)c1cccc(-c2cnc(N)c(C(=O)Nc3ccccc3N3CCCC(N)C3)n2)c1 (stereo not shown) [Example 373, 3-amino-6-(3-carbamoyl-phenyl)-pyrazine-2-carboxylic acid [2-(3-amino-piperidin-1-yl)-phenyl]-amide]
< 1	1 to 10	1 to 10	< 1	< 1000					Nc1ncc(-c2ccccc2F)nc1C(=O)Nc1ccccc1N1CCNCC1 [Example 383, 3-amino-6-(2-fluoro-phenyl)-pyrazine-2-carboxylic acid (2-piperazin-1-yl-phenyl)-amide]
< 1	1 to 10	< 1	< 1	< 1000					COc1cncc(-c2cnc(N)c(C(=O)Nc3cnccc3N3CCC(N)CC3)n2)n1 [Example 366, 5-amino-6′-methoxy-[2,2′]bi-pyrazinyl-6-carboxylic acid (4-amino-3,4,5,6-tetrahydro-2H-[1,4′]bipyridinyl-3′-yl)-amide]
< 1	< 1	1 to 10	< 1	> 25000					NC(=O)c1ccc(N2CCCCC2)c(NC(=O)c2nc(Br)cnc2N)c1 [Example 133, 3-amino-6-bromo-N-(5-carbamoyl-2-piperidin-1-yl-phenyl)pyrazine-2-carboxamide]
< 1	1 to 10	< 1	< 1	< 1000					NC(=O)c1cccc(-c2cnc(N)c(C(=O)Nc3ccccc3N3CCC(N)CC3)n2)c1 [Example 380, 3-amino-6-(3-carbamoyl-phenyl)-pyrazine-2-carboxylic acid [2-(4-amino-piperidin-1-yl)-phenyl]-amide]
		< 1		1000 to 10000					Cc1ccccc1-c1cnc(N)c(C(=O)Nc2[nH]c(=O)ncc2N2CCCC(N)C2)n1 (stereo not shown) [Example 400, 3-amino-6-o-tolyl-pyrazine-2-carboxylic acid [5-(3-amino-piperidin-1-yl)-2-oxo-2,3-dihydro-pyrimidin-4-yl]-amide]
